Measurements: patent US9701681B2, “Fused ring heteroaryl compounds and their use as Trk inhibitors” (CMG Pharmaceutical Co., Ltd., priority 2014, dated 2017)

Assays:
KM12-luc cells = experiment: Cell proliferation assay (KM12); conditions: 72 hours exposure, read-out: IC50 (nM) Cell-based assay (KM12)
Procedure: (§1) Doxorubicin was purchased from Sigma Aldrich (D1515). All compounds were diluted in DMSO (Sigma Aldrich, D2650). AlamarBlue® cell viability reagent was purchased from Thermo Scientific (88952). CellTiter 96® AQueous One Solution Cell proliferation assay was purchased from Promega. KM12-luc cells were obtained from JCRB (National Institute of Health Sciences, Tokyo, Japan). They were maintained in DMEM medium (GIB-11965-118) supplemented with 10% fetal bovine serum (Gibco, 16000-044) and MEM Non-Essential Amino Acids Solution (Thermo Scientific, 11140-050). TF-1 cells were obtained from ATCC. They were maintained in RPMI medium (GIB-A10491) supplemented with 10% fetal bovine serum (Gibco, 16000-044), GM-CSF (Thermo Scientific, 11140-050), and β-NGF (R&D systems). Trypsin/EDTA was purchased from Gibco (GIB-25300-054, 0.05%). 96-well plates were purchased from Corning Inc.
(§2) The proliferation assay was performed for Chemical Compounds 1-61 s in media supplemented with 10% FBS, using AlamarBlue® cell viability reagent or CellTiter 96® AQueous One Solution Cell proliferation assay kit. Cells were cultured in humidified 37° C. incubator with 5% CO2. To evaluate the antiproliferation activity of compounds, TF-1 cells were adjusted to GM-CSF free media (RPMI, 10% FBS, and 1% penicillin-streptomycin) for 16 hr and were seeded in 96-well plates at 30,000 cells/well with medium (RPMI, 10% FBS, 1% penicillin-streptomycin and 10 ng/ml human β-NGF). KM12-luc were seeded at 10,000 cells per well into 96-well plates. After overnight incubation, serial dilutions of compounds were added to triplicate wells, and cells were exposed for 72 hours. The final concentration of DMSO was adjusted to 0.5% in media. Quantitation of cell growth was assessed using two kinds of reagent. 20 ul of AlamarBlue® reagent in an amount equal to 10% of the culture volume was added to each well and were incubated in humidified 37° C. incubator with 5% CO2 for 2 hr. Otherwise, 20 ul of CellTiter 96® reagent was added to each well and were incubated in the same conditions as previously described. Data were plotted, and GI50 values were calculated using GraphPad software. Table 1 below includes the results of the assays.

TRK A, B & C kinase = target: T1, TRK A, B & C kinase; experiment: TRK A, B & C kinase assay (ADP-Glo / HTRF KinEASE-TK); assay type: biochemical; conditions: ADP-Glo or HTRF KinEASE-TK kit, isoform not specified, read-out: IC50 (nM) Enzymatic assay
T1 construct: fused on or other part: Carna's Trk kinases are usually GST-tagged cytoplasmic domains
Procedure: ADP-Glo assay kit was purchased from Promega. poly (Glu, Tyr), Magnesium sulfate, Bovine serum albumin (BSA) and dimethylsulfoxide(DMSO) were purchased from Sigma-Aldrich. Tris-HCl buffer was purchased from BD Gentest. HTRF KinEASE-TK kit was purchased from cisbio. TRK A, B & C kinase was purchased from Carna bioscience.
Kinase assay was performed for Chemical Compounds 1-61 using two methods using luminescent ADP-Glo assay kit (Promega) and HTRF KinEASE-TK assay kit (cisbio). The luminescent ADP-Glo assay kit (Promega) measures ADP formed from a kinase reaction. ADP converted into ATP, which is then converted into light by Ultra-Glo luciferase. The HTRF KinEASE-TK assay kit (cisbio) measures tyrosine kinase activities using one substrate and a universal detection system.
ADP-Glo Assay Kit (Promega)
The protein kinase assay was performed for Chemical Compounds 1-61 at […] concentrations are 0.4 ng/ul of TrKA, 0.5 ng/ul of TrKB and 3 ng/ul of TrKC, respectively), 5 μL of 1 ug/ul stock solution of poly(glu, Tyr), 5 μL of compounds or assay buffer, 5 μL of ATP (125 μM stock solution).
The assay was started by incubating the reaction mixture in a 96-well plate at 30° C. for 1 hr. After the incubation, the assay was terminated by the addition of 25 […] Detection Reagent was added, and the 96-well plate was shaken and then incubated for additional 30 min at ambient temperature. The 96-well reaction plate was then read on an Enspire plate reader. The IC50 values were derived through a curve fitting using SigmaPlot.
HTRF KinEASE-TK Assay Kit (Cisbio)
The HTRF KinEASE-TK assay was performed for Chemical Compounds 1-61 in 384-well low volume microplate (Greiner). The HTRF KinEASE-TK assay format involves the two steps. The first step is kinase reaction step. This kinase reaction step was performed at RT (room temperature) in final volume of 10 ul according to the following assay reaction recipe: 10 ul of kinase mixture (Kinase (2 ul)+ATP (2 ul)+Substrate (2 ul)+Compound (4 ul)). Kinase final concentrations were 0.3 ng/ul of TRKA, 0.1 ng/ul of TRKB, 0.03 ng/ul of TRKC, respectively. ATP final concentrations were 14.7 uM (TRKA), 4.77 uM (TRKB), 25.6 uM (TRKC) respectively. TK-substrate final concentration was 0.3 ng/ul. The mixtures exposed to Dose response concentration (DRC) compound from 0 to 100 nM for 40 min. During the kinase reaction step, the kinase reaction was started by the addition of ATP. Kinase phosphorylates the substrate.
The second is detection step. 10 ul of detection reagents (5 ul Sa-XL 665 in EDTA+5 ul TK Antibody-Eu in EDTA) was added to kinase mixture. This step was performed at room temperature for 1 hr. The detection reagent detects phosphorylated substrates.
Finally 384-well reaction plate was then read on FlexStation 3 machine. The fluorescence was measured at 620 nm (Cryptate) and 665 nm (XL665). A ratio is calculated ([…]/620)×10^4 for each well. The IC50 value was derived through a curve fitting using GraphPad Prism. Table 1 below includes the results of the assays.

TF-1 cells = experiment: Cell proliferation assay (TF-1); conditions: 10 ng/ml human β-NGF, 72 hours exposure, read-out: IC50 (nM) Cell-based assay (TF-1)
Procedure: as §1, §2

CC(C)(C)c1nnc(-c2cnn3ccc(N4CCCC4c4cncc(F)c4)nc23)o1 (stereo not drawn) [Chemical Compound 16, 2-tert-butyl-5-(5-(2-(5-fluoropyridin-3-yl)pyrrolidin-1-yl)pyrazolo[1,5-a]pyrimidin-3-yl)-1,3,4-oxadiazole]
IC50 (KM12-luc cells): < 100 nM | IC50 (TRK A, B & C kinase): < 10 nM | IC50 (TF-1 cells): < 100 nM

CC(C)c1nnc(-c2cnn3ccc(N4CCC[C@@H]4c4cncc(F)c4)nc23)s1 [Chemical Compound 17, (R)-2-(5-(2-(5-fluoropyridin-3-yl)pyrrolidin-1-yl)pyrazolo[1,5-a]pyrimidin-3-yl)-5-isopropyl-1,3,4-thiadiazole]
IC50 (KM12-luc cells): < 10 nM | IC50 (TRK A, B & C kinase): < 10 nM | IC50 (TF-1 cells): < 10 nM

CC(C)(C)c1nnc(-c2cnn3ccc(N4C[C@@H](F)C[C@@H]4c4cc(F)ccc4F)nc23)o1 [Chemical Compound 26, 2-tert-butyl-5-(5-((2R,4S)-2-(2,5-difluorophenyl)-4-fluoropyrrolidin-1-yl)pyrazolo[1,5-a]pyrimidin-3-yl)-1,3,4-oxadiazole]
IC50 (KM12-luc cells): < 10 nM | IC50 (TRK A, B & C kinase): < 10 nM | IC50 (TF-1 cells): < 10 nM

CC(C)(C)c1nnc(-c2cnn3ccc(N4C[C@@H](F)C[C@H]4c4cc(F)ccc4F)nc23)o1 [Chemical Compound 27, 2-tert-butyl-5-(5-((2S,4S)-2-(2,5-difluorophenyl)-4-fluoropyrrolidin-1-yl)pyrazolo[1,5-a]pyrimidin-3-yl)-1,3,4-oxadiazole]
IC50 (KM12-luc cells): > 1000 nM | IC50 (TRK A, B & C kinase): > 100 nM | IC50 (TF-1 cells): > 1000 nM

COc1ncc(F)cc1C1CCCN1c1ccn2ncc(-c3nnc(C(C)(C)C)o3)c2n1 (stereo not drawn) [Chemical Compound 28, 2-tert-butyl-5-(5-(2-(5-fluoro-2-methoxypyridin-3-yl)pyrrolidin-1-yl)pyrazolo[1,5-a]pyrimidin-3-yl)-1,3,4-oxadiazole]
IC50 (KM12-luc cells): < 10 nM | IC50 (TRK A, B & C kinase): < 10 nM | IC50 (TF-1 cells): < 10 nM

Fc1ccc(F)c(C2CCCN2c2ccn3ncc(-c4cnco4)c3n2)c1 (stereo not drawn) [Chemical Compound 29, 5-(5-(2-(2,5-difluorophenyl)pyrrolidin-1-yl)pyrazolo[1,5-a]pyrimidin-3-yl)oxazole]
IC50 (KM12-luc cells): < 100 nM | IC50 (TRK A, B & C kinase): < 10 nM | IC50 (TF-1 cells): < 100 nM

Fc1ccc(F)c(C2CCCN2c2ccn3ncc(-c4cnoc4)c3n2)c1 (stereo not drawn) [Chemical Compound 30, 4-(5-(2-(2,5-difluorophenyl)pyrrolidin-1-yl)pyrazolo[1,5-a]pyrimidin-3-yl)isoxazole]
IC50 (KM12-luc cells): < 100 nM | IC50 (TRK A, B & C kinase): < 10 nM | IC50 (TF-1 cells): < 100 nM

Cc1noc(C)c1-c1cnn2ccc(N3CCCC3c3cc(F)ccc3F)nc12 (stereo not drawn) [Chemical Compound 31, 4-(5-(2-(2,5-difluorophenyl)pyrrolidin-1-yl)pyrazolo[1,5-a]pyrimidin-3-yl)-3,5-dimethylisoxazole]
IC50 (KM12-luc cells): < 1000 nM | IC50 (TRK A, B & C kinase): < 100 nM | IC50 (TF-1 cells): < 1000 nM

Cc1nnc(-c2cnn3ccc(N4CCCC4c4cc(F)ccc4F)nc23)[nH]1 (stereo not drawn) [Chemical Compound 32, 5-(2-(2,5-difluorophenyl)pyrrolidin-1-yl)-3-(5-methyl-1H-1,2,4-triazol-3-yl)pyrazolo[1,5-a]pyrimidine]
IC50 (KM12-luc cells): < 100 nM | IC50 (TRK A, B & C kinase): < 10 nM | IC50 (TF-1 cells): < 100 nM

CCNC(=O)/C=C/c1cnn2ccc(N3CCCC3c3cncc(F)c3)nc12 (stereo not drawn) [Chemical Compound 38, (E)-N-ethyl-3-(5-(2-(5-fluoropyridin-3-yl)pyrrolidin-1-yl)pyrazolo[1,5-a]pyrimidin-3-yl)acrylamide]
IC50 (KM12-luc cells): < 1000 nM | IC50 (TRK A, B & C kinase): < 10 nM | IC50 (TF-1 cells): < 1000 nM

O=C(/C=C/c1cnn2ccc(N3CCCC3c3cncc(F)c3)nc12)NC1CC1 (stereo not drawn) [Chemical Compound 39, (E)-N-cyclopropyl-3-(5-(2-(5-fluoropyridin-3-yl)pyrrolidin-1-yl)pyrazolo[1,5-a]pyrimidin-3-yl)acrylamide]
IC50 (KM12-luc cells): < 1000 nM | IC50 (TRK A, B & C kinase): < 10 nM | IC50 (TF-1 cells): < 1000 nM

CN(C)C(=O)/C=C/c1cnn2ccc(N3CCCC3c3cncc(F)c3)nc12 (stereo not drawn) [Chemical Compound 40, (E)-3-(5-(2-(5-fluoropyridin-3-yl)pyrrolidin-1-yl)pyrazolo[1,5-a]pyrimidin-3-yl)-N,N-dimethylacryl-amide]
IC50 (KM12-luc cells): < 1000 nM | IC50 (TRK A, B & C kinase): < 10 nM | IC50 (TF-1 cells): < 100 nM

CCNC(=O)/C=C/c1cnn2ccc(N3CCCC3c3cc(F)ccc3F)nc12 (stereo not drawn) [Chemical Compound 41, (E)-3-(5-(2-(2,5-difluorophenyl)pyrrolidin-1-yl)pyrazolo[1,5-a]pyrimidin-3-yl)-N-ethylacrylamide]
IC50 (KM12-luc cells): < 100 nM | IC50 (TRK A, B & C kinase): < 10 nM | IC50 (TF-1 cells): < 100 nM

CC(C)NC(=O)/C=C/c1cnn2ccc(N3CCCC3c3cc(F)ccc3F)nc12 (stereo not drawn) [Chemical Compound 42, (E)-3-(5-(2-(2,5-difluorophenyl)-pyrrolidin-1-yl)pyrazolo[1,5-a]pyrimidin-3-yl)-N-isopropylacrylamide]
IC50 (KM12-luc cells): < 100 nM | IC50 (TRK A, B & C kinase): < 10 nM | IC50 (TF-1 cells): < 100 nM

O=C(/C=C/c1cnn2ccc(N3CCCC3c3cc(F)ccc3F)nc12)NC1CC1 (stereo not drawn) [Chemical Compound 43, (E)-N-cyclopropyl-3-(5-(2-(2,5-difluorophenyl)pyrrolidin-1-yl)pyrazolo[1,5-a]pyrimidin-3-yl)acrylamide]
IC50 (KM12-luc cells): < 100 nM | IC50 (TRK A, B & C kinase): < 10 nM | IC50 (TF-1 cells): < 100 nM

CC(C)(C)NC(=O)/C=C/c1cnn2ccc(N3CCCC3c3cc(F)ccc3F)nc12 (stereo not drawn) [Chemical Compound 44, (E)-N-tert-butyl-3-(5-(2-(2,5-difluorophenyl)pyrrolidin-1-yl)pyrazolo-[1,5-a]pyrimidin-3-yl)acrylamide]
IC50 (KM12-luc cells): < 100 nM | IC50 (TRK A, B & C kinase): < 10 nM | IC50 (TF-1 cells): < 100 nM

CN(C)C(=O)/C=C/c1cnn2ccc(N3CCCC3c3cc(F)ccc3F)nc12 (stereo not drawn) [Chemical Compound 45, (E)-3-(5-(2-(2,5-difluorophenyl)pyrrolidin-1-yl)pyrazolo[1,5-a]pyrimidin-3-yl)-N,N-dimethylacrylamide]
IC50 (KM12-luc cells): < 100 nM | IC50 (TRK A, B & C kinase): < 10 nM | IC50 (TF-1 cells): < 100 nM
